Laboratory results: EP2308883A1, “New derivatives of thieno[2,3-b]pyridine and 5,6,7,8 tetrahydrothieno[2,3 b]quinoline in particular useful in the treatment of malaria” (priority 2009, dated 2011)

What was measured:
[1] = test system: panel of 22 purified kinases, including 4 P. falciparum kinases; assay: Small panel of 22 purified kinases; format: biochemical; conditions: at concentrations up to 10 µM
Protocol: (§1) Compound No. 22 was also tested on a small panel of 22 purified kinases, including 4 P. falciparum kinases. […] To complement this selectivity study, compound No 22 was run on two large scale selectivity panels: Prof. P. Cohen's kinase selectivity panel (76 kinases) (Bain J, Plater L, Elliott M, Shapiro N, Hastie CJ, McLauchlan H et al. (2007). The selectivity of protein kinase inhibitors: a further update. Biochem J. 408: 297-315.) and the Ambit Biosciences interaction assay (402 kinases) (Karaman MW, Herrgard S, Treiber DK, Gallant P, Atteridge CE, Campbell BT, Chan KW, Ciceri P, Davis MI, Edeen PT, Faraoni R, Floyd M, Hunt JP, Lockhart DJ, Milanov ZV, Morrison MJ, Pallares G, Patel HK, Pritchard S, Wodicka LM, Zarrinkar PP. A quantitative analysis of kinase inhibitor selectivity. Nat Biotechnol. 2008 Jan;26(1):127-32.).

mammalian kinases = conditions: compared with roscovitine and staurosporine
Protocol: as §1

For `N#Cc1c(N)nc2sc(C(=O)c3cccc(Cl)c3)c(N)c2c1-c1ccccc1Cl` [Compound 22, 3,6-diamino-2-(3-chlorobenzoyl)-4-(2-chlorophenyl)thieno[2,3-b]pyridine-5-carbonitrile], the “inhibition of kinases of the panel besides PfGSK-3” value [1] was “no kinase was found to be inhibited” and the “inhibition of mammalian kinases in selectivity panels” value (mammalian kinases) was “very poor, if at all, inhibitor of mammalian kinases”.
